Among the data in patent publication US20240059689A1, “PURINE DERIVATIVES AS ANTICANCER AGENTS” (Tango Therapeutics, Inc., priority 2021, published 2024) are IC50 values, retold here.

For one assay, the system named is HCC1954. In words: Viability assay, BRCA1 WT cell line HCC1954. Format: cell-based. The settings on record: Homo sapiens, HCC1954, viability, read-out: HCC1954 rel IC50. The source says:
(§1) Table 1 also indicates IC50 values in a viability assay for a non-isogenic pair of BRCA1 mutant (column 5-MDA-MB-436) and BRCA1 WT (column 6—HCC1954) cell lines. These values indicate the effect of treatment with compound on cell survival.

The next assay has as its system MDA-MB-436. Briefly: Viability assay, BRCA1 mutant cell line MDA-MB-436. It is filed as cell-based. The settings on record: Homo sapiens, MDA-MB-436, viability, BRCA1 mutant MDA-MB-436; read-out: MDA-MB-436 rel IC50.
Source text: as §1

The next assay concerns monoubiquitinated PCNA. In words: AlphaLISA assay measuring monoubiquitinated PCNA in MDA-MB-436. Format: cell-based. The conditions noted are these: Homo sapiens, MDA-MB-436, monoubiquitinated PCNA, read-out: Alpha Lisa IC50. From the text:
Table 1 also indicates IC50 values for exemplary compounds in an AlphaLISA assay measuring monoubiquitinated PCNA in a BRCA1 mutant cell line (MDA-MB-436; column 7).

Another assay has as its target USP1-UAF1 (Homo sapiens, UniProt O94782). In words: Ubiquitin Rhodamine assay of USP1-UAF1 activity. It is filed as biochemical. Here is the method: Certain compounds of the disclosure were assessed for USP1-UAF1 activity in a Ubiquitin Rhodamine assay as described in Biology Example 1.

Chain of USP1-UAF1 (O94782 whole entry): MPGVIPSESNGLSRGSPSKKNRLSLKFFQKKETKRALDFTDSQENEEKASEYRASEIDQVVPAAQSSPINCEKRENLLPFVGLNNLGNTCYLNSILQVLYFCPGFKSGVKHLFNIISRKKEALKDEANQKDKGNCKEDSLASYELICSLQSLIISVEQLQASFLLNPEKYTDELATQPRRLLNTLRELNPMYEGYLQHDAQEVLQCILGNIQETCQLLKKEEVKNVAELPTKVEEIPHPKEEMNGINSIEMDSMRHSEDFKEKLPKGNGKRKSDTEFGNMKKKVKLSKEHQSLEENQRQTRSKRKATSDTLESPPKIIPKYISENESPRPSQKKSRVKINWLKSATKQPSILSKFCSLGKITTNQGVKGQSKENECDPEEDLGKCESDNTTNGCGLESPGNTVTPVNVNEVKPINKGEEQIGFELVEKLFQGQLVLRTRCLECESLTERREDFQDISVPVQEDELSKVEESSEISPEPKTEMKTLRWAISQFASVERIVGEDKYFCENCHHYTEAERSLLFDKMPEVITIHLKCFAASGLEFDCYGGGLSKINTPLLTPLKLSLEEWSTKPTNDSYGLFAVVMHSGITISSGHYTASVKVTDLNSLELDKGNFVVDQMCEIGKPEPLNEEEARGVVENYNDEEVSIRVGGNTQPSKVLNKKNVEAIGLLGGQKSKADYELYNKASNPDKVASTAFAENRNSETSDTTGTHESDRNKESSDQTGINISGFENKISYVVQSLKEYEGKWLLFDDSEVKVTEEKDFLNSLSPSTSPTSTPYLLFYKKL
Chain of USP1-UAF1 (Q8TAF3 whole entry partner): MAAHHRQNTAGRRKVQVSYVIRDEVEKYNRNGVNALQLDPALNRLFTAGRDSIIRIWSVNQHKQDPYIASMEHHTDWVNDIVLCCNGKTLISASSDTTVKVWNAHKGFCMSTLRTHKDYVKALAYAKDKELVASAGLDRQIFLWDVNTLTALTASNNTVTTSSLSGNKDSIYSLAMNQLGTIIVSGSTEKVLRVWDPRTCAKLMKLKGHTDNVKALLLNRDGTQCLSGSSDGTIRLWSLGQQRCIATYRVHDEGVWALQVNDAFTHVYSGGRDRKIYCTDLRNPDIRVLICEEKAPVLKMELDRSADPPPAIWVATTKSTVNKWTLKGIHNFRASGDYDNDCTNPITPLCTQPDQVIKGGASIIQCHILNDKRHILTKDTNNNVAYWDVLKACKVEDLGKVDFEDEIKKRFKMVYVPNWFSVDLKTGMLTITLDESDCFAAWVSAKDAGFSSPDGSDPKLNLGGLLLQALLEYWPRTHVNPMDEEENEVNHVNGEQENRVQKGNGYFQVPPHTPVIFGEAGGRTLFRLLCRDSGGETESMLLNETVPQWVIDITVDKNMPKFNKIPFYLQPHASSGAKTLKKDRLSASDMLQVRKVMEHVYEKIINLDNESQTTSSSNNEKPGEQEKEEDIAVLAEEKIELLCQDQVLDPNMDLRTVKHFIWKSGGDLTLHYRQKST

`COc1ncnc(C2CC2(F)F)c1-c1ncc2c(n1)n(Cc1ccc(-c3nc(C(F)(F)F)cn3C)cc1)c(=N)n2CC(F)(F)F` (stereo not shown) [Example T-116, 2-[4-(2,2-difluorocyclopropyl)-6-methoxy-pyrimidin-5-yl]-9-[[4-[1-methyl-4-(trifluoromethyl)imidazol-2-yl]phenyl]methyl]-7-(2,2,2-trifluoroethyl)purin-8-imine]: the IC50 in the assay with HCC1954 was ≥ 10000 nM; in the assay with MDA-MB-436, < 100 nM; with monoubiquitinated PCNA, < 100 nM; against USP1-UAF1, 100 to 10000 nM.
Take `Cc1nc(-c2ccccc2Cl)nc2c1n(C)c(=N)n2Cc1ccc(-c2nc(Cl)cn2C)cc1` [Example A-36, 9-(4-(4-chloro-1-methyl-1H-imidazol-2-yl)benzyl)-2-(2-chlorophenyl)-6,7-dimethyl-7,9-dihydro-8H-purin-8-imine]: the concentration for half-maximal inhibition (IC50) with HCC1954 is ≥ 10000 nM; in the assay on MDA-MB-436, 250 to 10000 nM; with monoubiquitinated PCNA, 250 to 10000 nM; on USP1-UAF1, 100 to 10000 nM.
With `CC(C)c1ccccc1-c1ncc2c(n1)n(Cc1ccc(-c3nc(C(F)(F)F)cn3C)cc1)c(=N)n2C1CCC1` [Example A-34, 7-cyclobutyl-2-(2-isopropylphenyl)-9-(4-(1-methyl-4-(trifluoromethyl)-1H-imidazol-2-yl)benzyl)-7,9-dihydro-8H-purin-8-imine], the IC50 is 250 to 10000 nM in the assay on HCC1954, 100 to 250 nM in the assay on MDA-MB-436, < 100 nM in the assay on monoubiquitinated PCNA and < 30 nM against USP1-UAF1.
Turning to `C=C(C)c1ccc(F)cc1-c1nc(C)c2c(n1)n(Cc1ccc(-c3nc(Cl)cn3C)cc1)c(=N)n2C` [Example A-44, 9-(4-(4-chloro-1-methyl-1H-imidazol-2-yl)benzyl)-2-(5-fluoro-2-(prop-1-en-2-yl)phenyl)-6,7-dimethyl-7,9-dihydro-8H-purin-8-imine], the IC50 in the assay with HCC1954 lay in the range of 250 to 10000 nM; in the assay on MDA-MB-436, 250 to 10000 nM; with monoubiquitinated PCNA, 250 to 10000 nM; at USP1-UAF1, 30 to 100 nM.
With `COc1ncnc(C2CC2)c1-c1ncc2c(n1)n(Cc1ccc(-c3nc(C(F)(F)F)cn3C)c(C)c1)c(=N)n2CC(F)(F)F` [Example T-107, 2-(4-cyclopropyl-6-methoxy-pyrimidin-5-yl)-9-[[3-methyl-4-[1-methyl-4-(trifluoromethyl)imidazol-2-yl]phenyl]methyl]-7-(2,2,2-trifluoroethyl)purin-8-imine], the IC50 was ≥ 10000 nM in the assay with HCC1954, 100 to 250 nM in the assay with MDA-MB-436, 100 to 250 nM in the assay on monoubiquitinated PCNA and 100 to 10000 nM against USP1-UAF1.
Take `COc1cc(-c2nc(C(F)(F)F)cn2C)ccc1Cn1c(=N)n(C)c2cnc(-c3ccccc3C(F)(F)F)nc21` [Example T-029]: the IC50 in the assay on HCC1954 was in the range of 250 to 10000 nM; with MDA-MB-436, 100 to 250 nM; in the assay with monoubiquitinated PCNA, 100 to 250 nM; against USP1-UAF1, 100 to 10000 nM.
In the case of `C=C(C)c1ccccc1-c1ncc2c(n1)n(Cc1ccc(-c3nc(C(F)(F)F)cn3C)cc1)c(=N)n2C` [Example B-4, 7-methyl-9-(4-(1-methyl-4-(trifluoromethyl)-1H-imidazol-2-yl)benzyl)-2-(2-(prop-1-en-2-yl)phenyl)-7,9-dihydro-8H-purin-8-imine], the IC50 in the assay on HCC1954 was ≥ 10000 nM; with MDA-MB-436 it was < 100 nM; in the assay with monoubiquitinated PCNA, < 100 nM; at USP1-UAF1, < 30 nM.
`Cn1cc(C(F)(F)F)nc1-c1ccc(Cn2c(=N)n(C)c3cnc(-c4cccnc4C4CC4)nc32)cc1` [Example T-009, 2-(2-cyclopropyl-3-pyridyl)-7-methyl-9-[[4-[1-methyl-4-(trifluoromethyl)imidazol-2-yl]phenyl]methyl]purin-8-imine]: the IC50 was ≥ 10000 nM in the assay with HCC1954, 250 to 10000 nM with MDA-MB-436, 100 to 250 nM in the assay with monoubiquitinated PCNA and 30 to 100 nM on USP1-UAF1.
On to `CC(C)c1ccccc1-c1ncc2c(n1)n(Cc1ccc(-n3ccc(C(F)(F)F)n3)cc1)c(=N)n2C` [Example A-24, 2-(2-isopropylphenyl)-7-methyl-9-(4-(3-(trifluoromethyl)-1H-pyrazol-1-yl)benzyl)-7,9-dihydro-8H-purin-8-imine], for which the 50% inhibitory concentration (IC50) was 250 to 10000 nM with HCC1954, 250 to 10000 nM with MDA-MB-436, 250 to 10000 nM in the assay on monoubiquitinated PCNA and 30 to 100 nM against USP1-UAF1.
With `COc1ncnc(C2CC2)c1-c1ncc2c(n1)n([C@H](C)c1ccc(-c3nc(C(F)(F)F)cn3C)cc1)c(=N)n2C` [Example T-131, 2-(4-cyclopropyl-6-methoxy-pyrimidin-5-yl)-7-methyl-9-[(1R)-1-[4-[1-methyl-4-(trifluoromethyl)imidazol-2-yl]phenyl]ethyl]purin-8-imine], the IC50 was ≥ 10000 nM in the assay on HCC1954, < 100 nM in the assay on MDA-MB-436, < 100 nM with monoubiquitinated PCNA and 30 to 100 nM on USP1-UAF1.
Regarding `COc1ncnc(C(F)(F)F)c1-c1ncc2c(n1)n(Cc1ccc(-n3nc(C(F)(F)F)cc3OC)cc1)c(=N)n2CC(F)(F)F` [Example T-145, 9-[[4-[5-methoxy-3-(trifluoromethyl)pyrazol-1-yl]phenyl]methyl]-2-[4-methoxy-6-(trifluoromethyl)pyrimidin-5-yl]-7-(2,2,2-trifluoroethyl)purin-8-imine], the IC50 in the assay with HCC1954 is 250 to 10000 nM; in the assay with MDA-MB-436, 100 to 250 nM; in the assay with monoubiquitinated PCNA, < 100 nM; at USP1-UAF1, 30 to 100 nM.
Regarding `CCn1cc(C(F)(F)F)nc1-c1ccc(Cn2c(=N)n(C)c3cnc(-c4cccnc4OC)nc32)cc1` [Example T-057], the IC50 was ≥ 10000 nM in the assay on HCC1954, 250 to 10000 nM in the assay on MDA-MB-436, 250 to 10000 nM in the assay with monoubiquitinated PCNA and 100 to 10000 nM against USP1-UAF1.
With `COc1ncnc(C2CC2)c1-c1ncc2c(n1)n(Cc1ccc(-n3nc(C(F)(F)F)cc3OC)cc1)c(=N)n2C` [Example T-078], the IC50 with HCC1954 was ≥ 10000 nM; with MDA-MB-436 it was < 100 nM; with monoubiquitinated PCNA it was < 100 nM; against USP1-UAF1, < 30 nM.
In the case of `COc1ncnc(C2CC2)c1-c1ncc2c(n1)n(Cc1cc(F)c(-c3nc(C(F)(F)F)cn3C)cc1F)c(=N)n2C` [Example T-044], the IC50 in the assay with HCC1954 was ≥ 10000 nM; with MDA-MB-436 it was 250 to 10000 nM; in the assay with monoubiquitinated PCNA, 100 to 250 nM; against USP1-UAF1, 30 to 100 nM.
Turning to `COc1ncnc(C2(C)CC2)c1-c1ncc2c(n1)n(Cc1ccc(-c3nc(C(F)(F)F)cn3C)cc1)c(=N)n2CC(F)(F)F` [Example T-137, 2-[4-methoxy-6-(1-methylcyclopropyl)pyrimidin-5-yl]-9-[[4-[1-methyl-4-(trifluoromethyl)imidazol-2-yl]phenyl]methyl]-7-(2,2,2-trifluoroethyl)purin-8-imine], the IC50 is ≥ 10000 nM with HCC1954, 100 to 250 nM in the assay with MDA-MB-436, 100 to 250 nM in the assay with monoubiquitinated PCNA and 100 to 10000 nM at USP1-UAF1.
With `COc1ncnc(C2CC2)c1-c1ncc2c(n1)n([C@H](C)c1ccc(-n3nc(C(F)(F)F)cc3OC)cc1)c(=N)n2CC(F)(F)F` [Example T-109, 2-(4-cyclopropyl-6-methoxy-pyrimidin-5-yl)-9-[(1R)-1-[4-[5-methoxy-3-(trifluoromethyl)pyrazol-1-yl]phenyl]ethyl]-7-(2,2,2-trifluoroethyl)purin-8-imine], the IC50 was ≥ 10000 nM in the assay with HCC1954, < 100 nM in the assay on MDA-MB-436, < 100 nM in the assay with monoubiquitinated PCNA and < 30 nM at USP1-UAF1.
Regarding `COc1ncccc1-c1ncc2c(n1)n(Cc1ccc(-c3nc(C(F)(F)F)cn3C(C)C)cc1)c(=N)n2C` [Example T-037], the IC50 was ≥ 10000 nM in the assay with HCC1954, 250 to 10000 nM with MDA-MB-436, 250 to 10000 nM in the assay on monoubiquitinated PCNA and 100 to 10000 nM against USP1-UAF1.
For `COc1ncnc(C2CC2)c1-c1ncc2c(n1)n(Cc1ccc(-c3nc(C(F)(F)F)cn3CC(F)F)cc1)c(=N)n2C` [Example T-069], the 50% inhibitory concentration (IC50) with HCC1954 was ≥ 10000 nM; in the assay with MDA-MB-436, 100 to 250 nM; with monoubiquitinated PCNA, 100 to 250 nM; against USP1-UAF1, 30 to 100 nM.
With `CC(C)c1ccccc1-c1ncc2c(n1)n(CC1CCN(c3nc(C(F)(F)F)cn3C)CC1)c(=N)n2C` [Example B-1, 2-(2-isopropylphenyl)-7-methyl-9-((1-(1-methyl-4-(trifluoromethyl)-1H-imidazol-2-yl)piperidin-4-yl)methyl)-7H-purin-8(9H)-imine], the half-inhibitory concentration (IC50) lay within 250 to 10000 nM with HCC1954, 100 to 250 nM in the assay on MDA-MB-436, 100 to 250 nM in the assay on monoubiquitinated PCNA and 100 to 10000 nM against USP1-UAF1.
`CC(C)c1ccccc1-c1nc(Cl)c2c(n1)n(Cc1ccc(-c3nc(C(F)(F)F)cn3C)cc1)c(=N)n2C` (single isomer, unassigned) [Example A-22a, 6-chloro-2-(2-isopropylphenyl)-7-methyl-9-(4-(1-methyl-4-(trifluoromethyl)-1H-imidazol-2-yl)benzyl)-7,9-dihydro-8H-purin-8-imine]: the IC50 is 250 to 10000 nM with HCC1954, 250 to 10000 nM in the assay on MDA-MB-436, 250 to 10000 nM with monoubiquitinated PCNA and < 30 nM against USP1-UAF1.
With `CCn1cc(C(F)(F)F)nc1-c1ccc(Cn2c(=N)n(CC(F)(F)F)c3cnc(-c4c(OC)ncnc4C4CC4)nc32)cc1` [Example T-132], the IC50 in the assay on HCC1954 is ≥ 10000 nM; in the assay on MDA-MB-436, < 100 nM; with monoubiquitinated PCNA, < 100 nM; on USP1-UAF1, 30 to 100 nM.
As for `CC(C)c1ccccc1-c1ncc2c(n1)n(Cc1ccc(-c3nc(C(F)(F)F)c[nH]3)cc1)c(=N)n2C` [Example A-5, 2-(2-isopropylphenyl)-7-methyl-9-(4-(4-(trifluoromethyl)-1H-imidazol-2-yl)benzyl)-7,9-dihydro-8H-purin-8-imine], the IC50 in the assay on HCC1954 lay in the range of 250 to 10000 nM; in the assay with MDA-MB-436, 250 to 10000 nM; in the assay on monoubiquitinated PCNA it was 250 to 10000 nM; against USP1-UAF1, 30 to 100 nM.
